Laboratory results as given in patent publication US4117230A, “Hydantoin derivatives as therapeutic agents” (priority 1977, dated 1978).

Legend:
aldose reductase = molecular target: T1, aldose reductase (Bos taurus, UniProt P16116); assay: inhibition of aldose reductase enzyme activity (procedure of S. Hayman et al., modified by K. Sestanj et al.); assay type: biochemical, calf; conditions: calf lens enzyme, read-out: Percent inhibition of aldose reductase enzyme activity; for inhibition at 100 µM: 10^-4 M; for inhibition at 10 µM: 10^-5 M; for inhibition at 1 µM: 10^-6 M; for inhibition at 0.1 µM: 10^-7 M
T1 construct: partially purified aldose reductose enzyme obtained from calf lens; from tissue; host or cells: calf lens
Method: (§1) The activity of the compounds of the present invention, as agents for the control of chronic diabetic complications, is determined by their ability to successfully pass one or more of the following standard biological and/or pharmacological tests, viz., (1) measuring their ability to inhibit the enzyme activity of isolated aldose reductase; (2) measuring their ability to reduce or inhibit sorbitol accumulation in the sciatic nerve of acutely sterptozotocinized (i.e., diabetic) rats; (3) measuring their ability to reverse already-elevated sorbitol levels in the sciatic nerve and lens of chronic streptozotocin-induced diabetic rats; (4) measuring their ability to prevent or inhibit galactitol formation in the lens of acutely galactosemic rats, and (5) measuring their ability to delay cataract formation and reduce the severity of lens opacities in chronic galactosemic rats.
Hayman et al., as described in the Journal of Biological Chemistry, Vol. 240, p. […] In every case, the substrate employed ws partially purified aldose reductose enzyme obtained from calf lens.

[1] = system: sorbitol accumulation in the sciatic nerve of streptozotocinized (i.e., diabetic) rats; assay: inhibition of sorbitol accumulation in the sciatic nerve of acutely streptozotocinized (diabetic) rats; assay type: in vivo, rat; conditions: measured at 27 h, vs untreated
Method: as §1
The following spiro-hydantoin compounds of Preparation C and Examples I-V, VII-IX, XI-XVII, XIX-XXV, XXVII and XXX-XXXIII, respectively, were tested for their ability to reduce or inhibit sorbitol accumulation in the sciatic nerve of streptozotocinized (i.e., diabetic) rats by the procedure essentially described in U.S. Pat. No. 3,821,383. In the present study, the amount of sorbitol accumulation in the sciatic nerves was measured 27 hours after induction of diabetes. The compounds were administered orally at the dose levels indicated at 4, 8 nd 24 hours following the administration of streptozotocin. The results obtained in this manner are presented below in terms of percent inhibition (%) afforded by the test compound as compared to the case where no compound was administered (i.e., the untreated animal where sorbitol levels normally rise from approximately […]. tissue to as high as […]. tissue in the 27-hour test period): […]

[2] = 2.5 mg./kg. orally at 4, 8 and 24 h after streptozotocin
[3] = 5.0 mg./kg. orally at 4, 8 and 24 h after streptozotocin
[4] = 10 mg./kg. orally at 4, 8 and 24 h after streptozotocin
[5] = 1.5 mg./kg. orally at 4, 8 and 24 h after streptozotocin

Row | Compound | inhibition at 100 µM (aldose reductase) [%] | inhibition at 10 µM (aldose reductase) [%] | inhibition at 1 µM (aldose reductase) [%] | inhibition at 0.1 µM (aldose reductase) [%] | Percent inhibition of sorbitol accumulation in the sciatic nerve [1, 2] [%] | Percent inhibition of sorbitol accumulation in the sciatic nerve [1, 3] [%] | Percent inhibition of sorbitol accumulation in the sciatic nerve [1, 4] [%] | Percent inhibition of sorbitol accumulation in the sciatic nerve [1, 5] [%] | Percent inhibition of sorbitol accumulation in the sciatic nerve ([1]; 0.75 mg./kg. orally at 4, 8 and 24 h after streptozotocin) [%]
1 | O=C1NC(=O)C2(CCSc3ccc(Br)cc32)N1 (centres unmarked) [Ex. X, 6-bromo-spiro-[imidazolidine-4,4'-thiochroman]-2,5-dione] | 32 | – | – | – | – | – | – | – | –
2 | COc1ccc2c(c1)CCC21NC(=O)NC1=O (centres unmarked) [Ex. VI, 5'-methoxy-spiro-[imidazolidine-4,1'-indan]-2,5-dione] | 82 | 60 | 13 | -10 | – | – | – | – | –
3 | O=C1NC(=O)C2(CCSc3ccc(Cl)cc32)N1 (centres unmarked) [Ex. IX, 6'-chloro-spiro-[imidazolidine-4,4'-thiochroman]-2,5-dione] | 79 | 87 | 71 | 30 | 58 | – | – | – | –
4 | O=C1NC(=O)C2(CCOc3ccccc32)N1 (centres unmarked) [Ex. XX, spiro[chroman-4,4'-imidazolidine]-2',5'-dione] | 73 | 64 | -9 | -16 | 34 | 58 | 77 | – | –
5 | O=C1NC(=O)C2(CCSc3ccccc32)N1 (centres unmarked) [Ex. VII, spiro-[imidazolidine-4,4'-thiochroman]-2,5-dione] | 92 | 64 | 10 | -5 | – | 39 | 65 | – | –
6 | COc1ccc2c(c1)C1(CC2)NC(=O)NC1=O (centres unmarked) [Ex. II, 6'-methoxy-spiro-[imidazolidine-4,1'-indan]-2,5-dione] | 97 | 61 | 17 | 1 | – | 6 | 54 | – | –
7 | COc1ccc2c(c1)C1(CCC2)NC(=O)NC1=O (centres unmarked) [Ex. XVI, 3',4'-dihydro-7'-methoxy-spiro[imidazolidine-4,1'(2'H)naphthalene]-2,5-dione] | 54 | – | 23 | – | – | 25 | 44 | – | –
8 | O=C1NC(=O)C2(CCc3cc4c(cc32)OCO4)N1 (centres unmarked) [Ex. V, 5',6'-methylenedioxy-spiro-[imidazolidine-4,1'-indan]-2,5-dione] | 92 | 67 | 25 | 3 | – | 9 | – | – | –
9 | O=C1NC(=O)C2(CCc3ccc(O)cc32)N1 (centres unmarked) [Ex. XIX, 6'-hydroxy-spiro-[imidazolidine-4,1'indan]-2,5-dione] | 93 | 31 | 11 | -30 | – | – | 15 | – | –
10 | O=C1NC(=O)C2(CCS(=O)(=O)c3ccc(F)cc32)N1 (centres unmarked) [Ex. XXXI, 6'-fluoro-spiro-[imidazolidine-4,4'-thiochroman]-2,5-dione-1',1'-dioxide] | 85 | 74 | 74 | 28 | 47 | 68 | – | – | –
11 | COc1ccc2c(c1)C1(CCS2)NC(=O)NC1=O (centres unmarked) [Ex. VIII, 6'-methoxy-spiro-[imidazolidine-4,4'-thiochroman]-2,5-dione] | 76 | 60 | 18 | 7 | – | 26 | – | – | –
12 | O=C1NC(=O)C2(CCOc3ccc(Br)cc32)N1 (centres unmarked) [Ex. XXVIII, 6-bromo-spiro-[chroman-4,4'-imidazolidine]-2',5'-dione] | 74 | – | – | – | – | – | – | – | –
13 | COc1cc2c(cc1OC)C1(CCC2)NC(=O)NC1=O (centres unmarked) [Ex. XVII, 3',4'-dihydro-6',7'-dimethoxy-spiro[imidazolidine-4,1'-(2H)naphthalene]-2,5-dione] | 82 | 26 | 8 | 16 | – | – | – | – | –
14 | O=C1NC(=O)C2(CC[S+]([O-])c3ccc(F)cc32)N1 (centres unmarked) [Ex. XXX, 6'-fluoro-spiro-[imidazolidine-4,4'-thiochroman]-2,5-dione-1'-oxide] | 87 | 80 | 64 | 16 | – | – | – | 35 | –
15 | O=C1NC(=O)C2(CCSc3cc(Cl)ccc32)N1 (centres unmarked) [Ex. XIV, 7'-chloro-spiro-[imidazolidine-4,4'-thiochroman]-2,5-dione] | 70 | – | – | – | – | – | – | 26 | –
16 | O=C1NC(=O)C2(CCCc3ncccc32)N1 (centres unmarked) [Ex. XV, 7',8'-dihydro-spiro[imidazolidine-4,5'(6H)-quinoline]-2,5-dione] | 83 | 54 | 9 | -2 | – | 5 | 52 | – | –
17 | O=C1NC(=O)C2(CCSc3c(Cl)cccc32)N1 (centres unmarked) [Ex. XIII, 8'-chloro-spiro-[imidazolidine-4,4'-thiochroman]-2,5-dione] | 60 | – | – | – | – | – | – | 5 | –
18 | O=C1NC(=O)C2(CCSc3ccc(F)cc32)N1 (centres unmarked) [Ex. XII, 6'-fluoro-spiro-[imidazolidine-4,4'-thiochroman]-2,5-dione] | 81 | 77 | 66 | 38 | 74 | – | – | 45 | 13
19 | COc1cccc2c1CCCC21NC(=O)NC1=O (centres unmarked) [Ex. XXVI, 3',4'-dihydro-5'-methoxy-spiro[imidazolidine-4,1'(2'H)-naphthalene]-2,5-dione] | 72 | 49 | 5 | 0 | – | – | – | – | –
20 | COc1ccc2c(c1)CCCC21NC(=O)NC1=O (centres unmarked) [Ex. XVIII, 3',4'-dihydro-6'-methoxy-spiro[imidazolidine-4,1'(2'H)naphthalene]-2,5-dione] | 72 | 38 | 15 | 7 | – | – | – | – | –
21 | O=C1NC(=O)C2(CCCc3ccccc32)N1 (centres unmarked) [Prep. C, 3',4'-Dihydro-spiro-[imidazolidine-4,1'(2'H)-naphthalene]-2,5-dione, reference compound] | 72 | 34 | 13 | 7 | – | 3 | 40 | – | –
22 | COc1ccc2c(c1)C1(CCO2)NC(=O)NC1=O (centres unmarked) [Ex. XXI, 6-methoxy-spiro[chroman-4,4'-imidazolidine]-2',5'-dione] | 100 | 92 | 35 | 7 | 24 | – | – | – | –
23 | O=C1NC(=O)C2(CCc3ccc(F)cc32)N1 (centres unmarked) [Ex. III, 6'-fluoro-spiro-[imidazolidine-4,1'-indan]-2,5-dione] | 74 | 12 | 22 | -1 | – | 45 | – | – | –
24 | Cc1cc(C)c2c(c1)C1(CCO2)NC(=O)NC1=O (centres unmarked) [Ex. XXXIV, 6,8-dimethyl-spiro-[chroman-4,4'-imidazolidine]-2',5'-dione] | 71 | 84 | 54 | 17 | – | – | – | – | –
25 | O=C1NC(=O)C2(CCS(=O)(=O)c3ccccc32)N1 (centres unmarked) [Ex. XXXII, spiro-[imidazolidine-4,4'-thiochroman]-2,5-dione-1',1'-dioxide] | 94 | 69 | 31 | 2 | – | – | – | – | –
